Measurements taken from patent publication US20250057819A1, “DRUG COMBINATIONS FOR INHIBITING CORONAVIRUS REPLICATION” (priority 2021, published 2025).
Counter-ions that a name gives are not always drawn. Like-named read-outs stand apart in the source and are kept apart here.

Columns and labels:
Assay in all cases: microbe, parasite or virus in culture
Assay type in all cases: cell-based
SARS-CoV-2 = conditions: read-out: SARS-CoV-2 (Vido) EC50
SARS-CoV-2 (Beta) = conditions: Huh7.5 cells, monotherapy
SARS-CoV-2 (Alpha) = conditions: Huh7.5 cells, monotherapy
[1] = Severe acute respiratory syndrome coronavirus 2, Huh7.5
[2] = Severe acute respiratory syndrome coronavirus 2

SMILES: CC(C)C(=O)OC[C@H]1O[C@@H](n2cc/c(=N\O)[nH]c2=O)[C@H](O)[C@@H]1O [Molnupinavir]
- EC50 (SARS-CoV-2): 90 nM
- EC50 (SARS-CoV-2 (Beta)): 110 nM
- EC50 (SARS-CoV-2 (Alpha)): 60 nM

SMILES: Cc1c(O)cccc1C(=O)N[C@@H](CSc1ccccc1)[C@H](O)CN1C[C@H]2CCCC[C@H]2C[C@H]1C(=O)NC(C)(C)C [Nelfinavir mesylate]
- EC50 (SARS-CoV-2; [1]): 1800 nM
- EC50 (SARS-CoV-2 (Beta); [2]): 110 nM
- EC50 (SARS-CoV-2 (Alpha); [2]): 500 nM

SMILES: CCN(CC)CCOc1ccc2c(c1)C(=O)c1cc(OCCN(CC)CC)ccc1-2 [Tilorone dihydrochloride]
- EC50 (SARS-CoV-2; [1]): 930 nM
- EC50 (SARS-CoV-2 (Beta); [2]): 190 nM
- EC50 (SARS-CoV-2 (Alpha); [2]): 250 nM
